{
  "source": "patent US12409172B2",
  "about": "“Dosage regimen” (UNION therapeutics A/S, priority 2023, dated 2025)",
  "system": "adults with moderate-to-severe plaque-type psoriasis",
  "experiment": "Phase 2b dose-ranging study in psoriasis (Example 3): efficacy (PASI), incl. body-weight sub-group and post-hoc analysis",
  "format": "in vivo, human",
  "description": "• Percentage change in Psoriasis […] and Severity Index (PASI) score from Baseline at Week 16. Key Secondary Endpoints • Patients achieving 75% reduction in PASI (PASI75) response at Week 16. • Patients achieving a score of Clear (0) or Almost Clear (1) and an at least 2-point improvement in Investigator Global Assessment (IGA) at Week 16. […] Safety Endpoints: • The occurrence, severity, and seriousness of treatment-emergent adverse events (TEAEs) reported over the 16-week Treatment Period and the 4-week Follow-up Period. • Changes from Baseline in physical examination; vital sign measurements (body temperature, respiration rate, heart rate, and systolic and diastolic blood pressure measurements); and body weight over the 16-week Treatment Period and the 4-week Follow-up Period. • Changes from Baseline in electrocardiogram (ECG) findings over the 16-week Treatment Period and the 4-week Follow-up Period. • Changes from Baseline in safety laboratory values (haematology, serum chemistry, and urinalysis) over the 16-week Treatment Period and the 4-week Follow-up Period. • Hospital Anxiety and Depression Scale at each visit except Week 2. • Columbia-Suicide Severity Rating Scale (C-SSRS) at each visit except Weeks 1 and 2. Exploratory Endpoints: • Change from Baseline in Physician's Global Assessment of Fingernails (PGA-F) at Week 16. • Change in Scalp-Specific Investigator Global Assessment (ss-IGA) from Baseline at Week 16 in the subgroup of patients with Baseline score of at least 2 (mild scalp psoriasis). • Change from Baseline of scalp itch Numeric Rating Scale (NRS) at Week 16 in the subgroup of patients with Baseline score of at least 4 on the 11-point NRS. • Change from Baseline in joint pain NRS at Week 16 in patients with psoriatic arthritis (PsA) and a Baseline joint pain score of at least 4. • Change in cardiovascular risk factors at Week 16. The following parameters will be collected: weight, body mass index, waist and hip circumferences, blood pressure, fasting serum glucose, triglycerides, cholesterol (total and high-density lipoprotein/low-density lipoprotein fractions), and C-reactive protein. • Change from Baseline in skin biomarkers at Week 16 collected via tape stripping and analysed using proteomic methods. • Plasma levels of the drug and its metabolites at scheduled visits. Study Design\nA multicentre, randomized, double-blind, placebo-controlled, parallel group, Phase 2b dose-ranging study designed to assess the efficacy and safety of modified-release orismilast compared with placebo in adult patients with moderate-to-severe plaque-type psoriasis. Efficacy and safety outcomes will be evaluated to select an appropriate orismilast dose for subsequent Phase 3 studies.\nAfter a Screening visit up to 28 days before Baseline, 202 patients were assigned randomly in a 1:1:1:1 ratio to receive 1 of the 3 orismilast doses (20 mg, 30 mg, or 40 mg) or placebo twice daily (BID) for 16 weeks, with a 4-week Follow-up visit. Administration will begin at Baseline with a dose titration period. The maximum duration of study participation was approximately 24 weeks.\nAt Baseline and each visit from Week 4 onwards, PASI, BSA, IGA, and PSS were assessed. Quality of life was assessed by administration of DLQI at Baseline and at Weeks 16 and 20 visits. Additional efficacy parameters include: an ss-IGA, a Physician Global Assessment of fingernail psoriasis (PGA-F), and patient's joint pain NRS for those with a diagnosis of PsA. These parameters were assessed at Baseline and Weeks 16 and 20. Safety evaluations include adverse events (Aes), laboratory and vital sign assessments, physical examinations, as well as mood change evaluation by patient (Hospital Anxiety and Depression Scale) and suicidal ideation evaluation by Investigator (C-SSRS). A panel of cardiovascular risk factors were assessed at Baseline and Week 16. […]",
  "key": {"[1]": {"conditions": "post-hoc group 20 mg BID (<100 kg)/30 mg BID (≥100 kg), NRI"}},
  "data": [
    {"smiles": "O=C(Cc1c(Cl)c[n+]([O-])cc1Cl)c1ccc(OC(F)F)c2c1OC1(CCS(=O)(=O)CC1)O2", "note": "[orismilast, 2-(3,5-dichloro-1-oxidopyridin-1-ium-4-yl)-1-[7-(difluoromethoxy)-1′,1′-dioxospiro[1,3-benzodioxole-2,4′-thiane]-4-yl]ethanone]", "values": [
      {"measurement": "mean percentage change in PASI from baseline to Week 16", "setting": "20 mg BID", "value": "−52.6", "unit": "%"},
      {"measurement": "PASI-75 responders", "setting": "20 mg BID, NRI", "value": 35, "unit": "%"},
      {"measurement": "PASI-90 responders", "setting": "20 mg BID, NRI", "value": 23, "unit": "%"},
      {"measurement": "PASI-100 responders", "setting": "20 mg BID, NRI", "value": 8, "unit": "%"},
      {"measurement": "mean percentage change in PASI from baseline to Week 16", "setting": "30 mg BID", "value": "−61.2", "unit": "%"},
      {"measurement": "PASI-75 responders", "setting": "30 mg BID, NRI", "value": 44, "unit": "%"},
      {"measurement": "PASI-90 responders", "setting": "30 mg BID, NRI", "value": 20, "unit": "%"},
      {"measurement": "PASI-100 responders", "setting": "30 mg BID, NRI", "value": 8, "unit": "%"},
      {"measurement": "mean percentage change in PASI from baseline to Week 16", "setting": "40 mg BID", "value": "−63.7", "unit": "%"},
      {"measurement": "efficacy of post-hoc group 20 mg BID (<100 kg)/30 mg BID (≥100 kg) relative to all pre-specified treatment arms", "setting": "NRI", "value": "improved"},
      {"measurement": "efficacy of the 20 mg BID dose vs the 30 mg BID dose in patients weighing ≥100 kg", "setting": "PASI50, PASI75, PASI90, weeks 4, 8, 12 and 16", "value": "less efficacious"},
      {"measurement": "efficacy of the 20 mg BID dose vs the 30 mg BID dose in patients weighing <100 kg at baseline", "setting": "PASI75 and in particular PASI90", "value": "(similar or) more efficacious"},
      {"measurement": "treatment effect versus placebo, percentage change in PASI from baseline to Week 16 (primary endpoint)", "setting": "all doses (20, 30, 40 mg BID)", "value": "statistically significant treatment effect"},
      {"measurement": "PASI-75 responders", "setting": "[1]", "value": 46, "unit": "%"},
      {"measurement": "PASI-90 responders", "setting": "[1]", "value": 29, "unit": "%"},
      {"measurement": "PASI-100 responders", "setting": "[1]", "value": 10, "unit": "%"},
      {"measurement": "efficacy (PASI50, PASI75, PASI90) of the 30 mg BID dose in patients weighing ≥100 kg compared to <100 kg at baseline", "setting": "weeks 4, 8, 12 and 16", "value": "consistently higher"}
    ]}
  ]
}
